Assay results: US20200360352A1, “USE OF RIFAMYCIN-NITROIMIDAZOLE COUPLING MOLECULE” (priority 2019, published 2020)
In brackets after ≈: the same amount, converted by molar mass. Like-named read-outs stand apart in the source and are kept apart here.

Tests used:
Mycobacterium kansasii [1] = assay: MIC, micro broth dilution with resazurin readout; format: cell-based; conditions: read-out: Minimum Inhibitory Concentration (MIC)
Mycobacterium avium [2] = assay: MIC, micro broth dilution with resazurin readout; format: cell-based; conditions: read-out: Minimum Inhibitory Concentration (MIC)
Mycobacterium avium [3] = assay: MBC, plating of MIC wells and CFU count; format: cell-based; conditions: read-out: Minimum Bactericidal Concentration (MBC)
Mycodacterium chelonei = assay: MIC, micro broth dilution with resazurin readout; format: cell-based; conditions: MH Culture Medium; Chelonei (standard strain); read-out: Minimum Inhibitory Concentration (MIC)
Mycobacterium fortuitum = assay: MIC, micro broth dilution with resazurin readout; format: cell-based; conditions: Mycolicibacterium fortuitum, MH Culture Medium, read-out: Minimum Inhibitory Concentration (MIC)
Mycobacterium kansasii [4] = assay: MBC, plating of MIC wells and CFU count; format: cell-based; conditions: read-out: Minimum Bactericidal Concentration (MBC)
Mycobacterium abscessus [5] = assay: MBC, plating of MIC wells and CFU count; format: cell-based; conditions: Mycobacteroides abscessus, read-out: Minimum Bactericidal Concentration (MBC)
[6] = system: Mycobacterium intracellulare; assay: MIC, micro broth dilution with resazurin readout; format: cell-based; conditions: MH Culture Medium, read-out: Minimum Inhibitory Concentration (MIC)
NTM = assay: In-vitro activity against NTM, overall conclusion; format: cell-based, nontuberculous mycobacteria; conditions: overall conclusion from Tables 1-3
Procedure: In this embodiment, an inhibitory test is performed on pathogenic bacteria, i.e. Mycobacterium avium, Mycobacterium abscessus and Mycobacterium kansasii belonging to the nontuberculous mycobacteria using the rifamycin-nitroimidazole coupling molecule of the present invention and positive controls, and then Minimum Inhibitory Concentration (MIC) and Minimum Bactericidal Concentration (MBC) are obtained. Clarithromycin, moxifloxacin, amikacin, rifampicin, rifabutin, ciprofloxacin and metronidazole are used as positive controls. The test strains are provided by KnowBio company, and the Chinese clinically isolated strains are derived from Shanghai Pulmonary Hospital.
The inhibitory test of this embodiment is performed by the micro broth dilution method using two different culture mediums: (1) MH (Mueller-Hinton) micro broth dilution method: using MH culture medium (or culture solution), wherein the concentration of calcium and magnesium ions in MH broth (cation-adjusted) is consistent with that in the Guideline of the Clinical and Laboratory Standards Institute (CLSI; M7-A7); and (2) 7H9 micro broth dilution method: using 7H9 culture medium (or culture solution, provided by Sigma-Aldrich).

[7] = system: Mycobacterium massiliense; assay: MIC, micro broth dilution with resazurin readout; format: cell-based; conditions: Mycobacteroides abscessus, MH Culture Medium, read-out: Minimum Inhibitory Concentration (MIC)
Mycobacterium abscessus [8] = assay: MIC, micro broth dilution with resazurin readout; format: cell-based; conditions: Mycobacteroides abscessus, read-out: Minimum Inhibitory Concentration (MIC)
[9] = 7H9 Broth, Mycobacterium avium Rough
[10] = 7H9 Broth, Mycobacterium avium Smooth
[11] = MH Broth, Mycobacterium avium Rough
[12] = MH Broth, Mycobacterium avium Smooth

Q: CO[C@H]1/C=C/O[C@@]2(C)Oc3c(C)c(O)c4c(c3C2=O)C2=NC3(CCN(CCn5c([N+](=O)[O-])cnc5C)CC3)NC2=C(NC(=O)/C(C)=C\C=C\[C@H](C)[C@H](O)[C@@H](C)[C@@H](O)[C@@H](C)[C@H](OC(C)=O)[C@@H]1C)C4=O [Compound I] was tested. Which MIC (Mycobacterium kansasii [1]; 7H9 Broth) did it give?
A: 2 µg/mL (≈ 2.12 µM)

Q: And the MIC (Mycobacterium kansasii [1]; MH Broth)?
A: 2 µg/mL (≈ 2.12 µM)

Q: And the MIC (Mycobacterium kansasii [1]; MH Culture Medium, Kansasii (standard strain))?
A: 0.0625 µg/mL (≈ 0.0662 µM)

Q: What about the MIC (Mycobacterium kansasii [1]; MH Culture Medium, clinically isolated strain Kansasii (S9)) of the same compound?
A: 0.0625 µg/mL (≈ 0.0662 µM)

Q: And the MIC (Mycobacterium kansasii [1]; MH Culture Medium, clinically isolated strain Kansasii (S199))?
A: 0.0625 µg/mL (≈ 0.0662 µM)

Q: And the MIC (Mycobacterium kansasii [1]; MH Culture Medium, clinically isolated strain Kansasii (S520))?
A: 0.0625 µg/mL (≈ 0.0662 µM)

Q: What about the MIC (Mycobacterium kansasii [1]; MH Culture Medium, clinically isolated strain Kansasii (S609)) of the same compound?
A: 0.0625 µg/mL (≈ 0.0662 µM)

Q: And the MIC (Mycobacterium avium [2]; [9])?
A: 4 µg/mL (≈ 4.24 µM)

Q: What about the MIC (Mycobacterium avium [2]; [10]) of the same compound?
A: 4 µg/mL (≈ 4.24 µM)

Q: And the MIC (Mycobacterium avium [2]; [11])?
A: 4 µg/mL (≈ 4.24 µM)

Q: What about the MIC (Mycobacterium avium [2]; [12]) of the same compound?
A: 4 µg/mL (≈ 4.24 µM)

Q: And the MIC (Mycobacterium avium [2]; MH Culture Medium, Avium (standard strain))?
A: 0.0625 µg/mL (≈ 0.0662 µM)

Q: What about the MIC (Mycobacterium avium [2]; MH Culture Medium, clinically isolated strain Avium (S31)) of the same compound?
A: 0.0625 µg/mL (≈ 0.0662 µM)

Q: And the MIC (Mycobacterium avium [2]; MH Culture Medium, clinically isolated strain Avium (S123))?
A: 0.0625 µg/mL (≈ 0.0662 µM)

Q: What about the MIC (Mycobacterium avium [2]; MH Culture Medium, clinically isolated strain Avium (S559)) of the same compound?
A: 0.0625 µg/mL (≈ 0.0662 µM)

Q: And the MIC (Mycobacterium avium [2]; MH Culture Medium, clinically isolated strain Avium (S568))?
A: 0.25 µg/mL (≈ 0.265 µM)

Q: And the MIC (Mycobacterium avium [2]; MH Culture Medium, clinically isolated strain Avium (S577))?
A: 0.0625 µg/mL (≈ 0.0662 µM)

Q: What about the MIC (Mycobacterium avium [2]; MH Culture Medium, clinically isolated strain Avium (S597)) of the same compound?
A: 0.125 µg/mL (≈ 0.132 µM)

Q: And the MIC (Mycobacterium avium [2]; MH Culture Medium, clinically isolated strain Avium (S602))?
A: 0.0625 µg/mL (≈ 0.0662 µM)

Q: And the MBC (Mycobacterium avium [3]; [9])?
A: 4 µg/mL (≈ 4.24 µM)

Q: What about the MBC (Mycobacterium avium [3]; [10]) of the same compound?
A: 16 µg/mL (≈ 16.9 µM)

Q: And the MBC (Mycobacterium avium [3]; [11])?
A: 4 µg/mL (≈ 4.24 µM)

Q: And the MBC (Mycobacterium avium [3]; [12])?
A: 16 µg/mL (≈ 16.9 µM)

Q: And the MIC (Mycodacterium chelonei)?
A: 32 µg/mL (≈ 33.9 µM)

Q: And the MIC (Mycobacterium fortuitum; Fortuitum (standard strain))?
A: 16 µg/mL (≈ 16.9 µM)

Q: And the MIC (Mycobacterium fortuitum; clinically isolated strain Fortuitum (S103))?
A: > 64 µg/mL

Q: And the MIC (Mycobacterium fortuitum; clinically isolated strain Fortuitum (S111))?
A: 4 µg/mL (≈ 4.24 µM)

Q: What about the MBC (Mycobacterium kansasii [4]; 7H9 Broth) of the same compound?
A: 8 µg/mL (≈ 8.47 µM)

Q: And the MBC (Mycobacterium kansasii [4]; MH Broth)?
A: 2 µg/mL (≈ 2.12 µM)

Q: What about the MBC (Mycobacterium abscessus [5]; 7H9 Broth) of the same compound?
A: 1 µg/mL (≈ 1.06 µM)

Q: And the MBC (Mycobacterium abscessus [5]; MH Broth)?
A: 16 µg/mL (≈ 16.9 µM)

Q: And the MIC ([6]; Intracellulare (standard strain))?
A: 0.0625 µg/mL (≈ 0.0662 µM)

Q: What about the MIC ([6]; clinically isolated strain Intracellulare (S90)) of the same compound?
A: 0.25 µg/mL (≈ 0.265 µM)

Q: What about the MIC ([6]; clinically isolated strain Intracellulare (S261)) of the same compound?
A: 0.25 µg/mL (≈ 0.265 µM)

Q: And the MIC ([6]; clinically isolated strain Intracellulare (S269))?
A: 0.125 µg/mL (≈ 0.132 µM)

Q: What about the MIC ([6]; clinically isolated strain Intracellulare (S290)) of the same compound?
A: 0.25 µg/mL (≈ 0.265 µM)

Q: And the MIC ([6]; clinically isolated strain Intracellulare (S291))?
A: 0.125 µg/mL (≈ 0.132 µM)

Q: What about the MIC ([6]; clinically isolated strain Intracellulare (S298)) of the same compound?
A: 0.25 µg/mL (≈ 0.265 µM)

Q: What about the MIC ([6]; clinically isolated strain Intracellulare (S442)) of the same compound?
A: 0.0625 µg/mL (≈ 0.0662 µM)

Q: And the MIC ([6]; clinically isolated strain Intracellulare (S541))?
A: 0.125 µg/mL (≈ 0.132 µM)

Q: What about the MIC ([6]; clinically isolated strain Intracellulare (S623)) of the same compound?
A: 0.25 µg/mL (≈ 0.265 µM)

Q: And the MIC ([6]; clinically isolated strain Intracellulare (ZPS))?
A: 0.0625 µg/mL (≈ 0.0662 µM)

Q: And the “in-vitro activity against NTM” value (NTM)?
A: effective and broad in-vitro activity against NTM

Q: What about the MIC ([7]; clinically isolated strain Massiliense (D10)) of the same compound?
A: 64 µg/mL (≈ 67.8 µM)

Q: What about the MIC ([7]; clinically isolated strain Massiliense (D14)) of the same compound?
A: 64 µg/mL (≈ 67.8 µM)

Q: What about the MIC ([7]; clinically isolated strain Massiliense (D18)) of the same compound?
A: 64 µg/mL (≈ 67.8 µM)

Q: And the MIC (Mycobacterium abscessus [8]; 7H9 Broth)?
A: 1 µg/mL (≈ 1.06 µM)

Q: What about the MIC (Mycobacterium abscessus [8]; MH Broth) of the same compound?
A: 1 µg/mL (≈ 1.06 µM)
